Laboratory results published in US9828350B2, “5,6-dihydro-2H-[1,4]oxazin-3-yl-amine derivatives useful as inhibitors of beta-secretase (BACE)” (Janssen Pharmaceutica NV, priority 2010, dated 2017).

Experiments:
Abeta 1-42 = assay: Cellular αLisa assay in SKNBE2 cells, Abeta 1-42; assay type: cell-based, human; conditions: incubated for 18 hours; for IC50: Homo sapiens, SKNBE2, 18 h, read-out: Cellular αLisa assay in SKNBE2 cells Abeta 42 pIC50 (converted)
Method: (§1) Cellular αLisa Assay in SKNBE2 Cells
(§2) In two αLisa assays the levels of Abeta total and Abeta 1-42 produced and secreted into the medium of human neuroblastoma SKNBE2 cells are quantified. The assay is based on the human neuroblastoma SKNBE2 expressing the wild type Amyloid Precursor Protein (hAPP695). The compounds are diluted and added to these cells, incubated for 18 hours and then measurements of Abeta 1-42 and Abeta total are taken. Abeta total and Abeta 1-42 are measured by sandwich αLisa. αLisa is a sandwich assay using biotinylated antibody AbN/25 attached to streptavidin coated beads and antibody Ab4G8 or cAb42/26 conjugated acceptor beads for the detection of Abeta total and Abeta 1-42 respectively. In the presence of Abeta total or Abeta 1-42, the beads come into close proximity. The excitation of the donor beads provokes the release of singlet oxygen molecules that trigger a cascade of energy transfer in the acceptor beads, resulting in light emission. Light emission is measured after 1 hour incubation (excitation at […] and emission at 615 nm).

[1] = target: recombinant BACE1 protein (Homo sapiens, UniProt P56817); assay: Biochemical FRET based assay; conditions: recombinant BACE1 1 μg/ml, 120 minutes at room temperature, pH 5.0; for IC50: read-out: Biochemical FRET based assay pIC50 (converted)
Excerpt: Biochemical FRET Based Assay
This assay is a Fluorescence Resonance Energy Transfer Assay (FRET) based assay. The substrate for this assay is an APP derived 13 amino acids peptide that contains the ‘Swedish’ Lys-Met/Asn-Leu mutation of the amyloid precursor protein (APP) beta-secretase cleavage site. This substrate also contains two fluorophores: (7-methoxycoumarin-4-yl) acetic acid (Mca) is a fluorescent donor with excitation wavelength at 320 nm and emission at 405 nm and 2,4-Dinitrophenyl (Dnp) is a proprietary quencher acceptor. […] Upon cleavage by BACE1, the fluorophore Mca is separated from the quenching group Dnp, restoring the full fluorescence yield of the donor. The increase in fluorescence is linearly related to the rate of proteolysis.
Briefly in a 384-well format recombinant BACE1 protein in a final concentration of 1 μg/ml is incubated for 120 minutes at room temperature with […] substrate in incubation buffer (40 mM Citrate buffer pH 5.0, 0.04% PEG, 4% DMSO) in the absence or presence of compound. Next the amount of proteolysis is directly measured by fluorescence measurement at T=0 and T=120 (excitation at 320 nm and emission at 405 nm). Results are expressed in RFU (Relative Fluorescence Units), as difference between T120 and TO.

Abeta total = assay: Cellular αLisa assay in SKNBE2 cells, Abeta total; assay type: cell-based, human; conditions: incubated for 18 hours; for IC50: Homo sapiens, SKNBE2, 18 h, read-out: Cellular αLisa assay in SKNBE2 cells Abetatotal pIC50 (converted)
Method: as §1, §2

Chain of recombinant BACE1 protein (P56817 46-501): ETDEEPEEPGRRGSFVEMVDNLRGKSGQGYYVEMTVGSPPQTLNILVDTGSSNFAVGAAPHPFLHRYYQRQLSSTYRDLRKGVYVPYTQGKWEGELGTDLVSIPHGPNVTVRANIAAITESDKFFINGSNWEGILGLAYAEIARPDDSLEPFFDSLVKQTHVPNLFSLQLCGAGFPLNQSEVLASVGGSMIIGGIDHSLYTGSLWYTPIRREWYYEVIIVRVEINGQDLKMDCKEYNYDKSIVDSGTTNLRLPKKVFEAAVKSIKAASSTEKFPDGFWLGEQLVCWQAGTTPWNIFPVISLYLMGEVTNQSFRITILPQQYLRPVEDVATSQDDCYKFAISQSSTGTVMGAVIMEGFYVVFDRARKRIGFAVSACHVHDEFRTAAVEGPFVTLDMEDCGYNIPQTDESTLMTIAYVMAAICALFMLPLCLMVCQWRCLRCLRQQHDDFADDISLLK

| SMILES | Cellular αLisa assay in SKNBE2 cells Abeta 42 pIC50 (Abeta 1-42) | Biochemical FRET based assay pIC50 [1] | Cellular αLisa assay in SKNBE2 cells Abetatotal pIC50 (Abeta total) | IC50 (Abeta 1-42) | IC50 [1] | IC50 (Abeta total) |
| --- | --- | --- | --- | --- | --- | --- |
| NC1=NC(c2cc(-c3cncnc3)ccc2F)(C2CC2)C(F)OC1 (stereo not drawn) [Compound 296] | <5 | 5.42 | <5 |  |  |  |
| N#Cc1ccc(C(=O)Nc2cccc([C@@]3(C4CC4)N=C(N)CO[C@@H]3F)c2)nc1 [Compound 251] |  |  |  | 41.7 nM | 49 nM | 38 nM |
| COc1ccc(C(=O)Nc2ccc(F)c([C@@]3(C4CC4)N=C(N)CO[C@H]3C(F)(F)F)c2)nc1 [Compound 231] |  |  |  | 12.3 nM | 33.9 nM | 11.7 nM |
| CC1(c2cc(-c3cccc(OC(F)(F)F)c3)c(F)cc2F)COCC(N)=N1.Cl (stereo not drawn) [Compound 36] | 5.98 | 5.13 | 6.09 |  |  |  |
| CC1(c2cccc(NC(=O)c3ncc(Cl)cc3F)c2)N=C(N)COC1F (single isomer, unassigned) [Compound 164] | <5 |  | <5 |  | > 30200 nM |  |
| N#Cc1ccc(C(=O)Nc2ccc(F)c(C3(C4CC4)N=C(N)COC3F)c2)nc1 (stereo not drawn) [Compound 215] | 6.51 | 6.3 | 6.52 |  |  |  |
| COc1cnc(C(=O)Nc2cccc(C3(C)COC(F)(C(F)(F)F)C(N)=N3)c2)cn1 (single isomer, unassigned) [Compound 69] | 5.13 |  | <5 |  | 5130 nM |  |
| Cc1cc(Cl)cnc1C(=O)Nc1cccc([C@@]2(C3CC3)N=C(N)CO[C@H]2F)c1 [Compound 298] |  |  |  | 61.7 nM | 123 nM | 58.9 nM |
| CC1(c2cc(-c3cncnc3)ccc2F)N=C(N)COC1C(F)(F)F (single isomer, unassigned) [Compound 267] | 5.15 |  | <5 |  | > 30200 nM |  |
| COc1ccc(C(=O)Nc2ccc(F)c([C@@]3(C)N=C(N)CO[C@]3(F)C(F)(F)F)c2)nc1 [Compound 304] |  |  |  | 363 nM | 589 nM | 339 nM |
| N#Cc1cncc(-c2ccc(F)c([C@@]3(C4CC4)N=C(N)CO[C@@]3(F)C(F)(F)F)c2)c1 [Compound 271] |  |  |  | > 10000 nM | > 30200 nM | > 10000 nM |
| CCC1(c2cc(NC(=O)c3ncc(Cl)cc3F)ccc2F)N=C(N)COC1F (stereo not drawn) [Compound 283] |  |  |  | 30.2 nM | 67.6 nM | 24.5 nM |
| CC1(c2cc(-c3cccc(C#N)c3)c(F)cc2F)COCC(N)=N1 (stereo not drawn) [Compound 32] | 6.2 | 4.87 | 6.25 |  |  |  |
| CC1(c2cccc(-c3cncc(C#N)c3)c2)N=C(N)COC1C(F)(F)F (single isomer, unassigned) [Compound 205] | 5.55 |  | 5.47 |  | 15800 nM |  |
| C[C@@]1(c2cc(-c3cc(F)cc(F)c3)c(F)cc2F)COCC(N)=N1 [Compound 37] | 6.77 | 5.45 | 6.79 |  |  |  |
| NC1=N[C@@](c2cccc(-c3cncnc3)c2)(C2CC2)[C@H](C(F)(F)F)OC1 [Compound 269] |  |  |  | 58.9 nM | 158 nM | 57.5 nM |
| NC1=N[C@@](c2cccc(NC(=O)c3cnc(OCC(F)(F)F)cn3)c2)(C2CC2)[C@H](C(F)(F)F)OC1 [Compound 289] |  |  |  | 10 nM | 30.9 nM | 10.5 nM |
| C[C@@]1(c2cc(NC(=O)c3ccc(Cl)cc3)ccc2F)COCC(N)=N1 [Compound 41] | 7.31 | 6.33 | 7.33 |  |  |  |
| C[C@H]1OC[C@@](C)(c2cccc(NC(=O)c3ccc(Cl)cn3)c2)N=C1N (racemic) [Compound 151, cis-rac-N-[3-(5-Amino-3,6-dimethyl-3,6-dihydro-2H-1,4-oxazin-3-yl)phenyl]-5-chloropyridine-2-carboxamide] | 7.8 | 6.4 | 7.83 |  |  |  |
| C[C@]1(c2cc(-c3cncc(C#N)c3)c(F)cc2F)N=C(N)CO[C@H]1C(F)(F)F [Compound 351] |  |  |  | 550 nM | 2040 nM | 468 nM |
| COc1cnc(C(=O)Nc2ccc(F)c([C@@]3(C)N=C(N)CO[C@@]3(F)C(F)(F)F)c2)cn1 [Compound 180] |  |  |  | 33.9 nM | 44.7 nM | 28.2 nM |
| COc1cncc(-c2cccc(C3(C)N=C(N)COC3(F)C(F)(F)F)c2)c1 (single isomer, unassigned) [Compound 142] | <5 |  | <5 |  | > 30200 nM |  |
| CCC1(c2cc(NC(=O)c3ncc(C#N)cc3Cl)ccc2F)N=C(N)COC1C(F)(F)F (stereo not drawn) [Compound 284] |  |  |  | 17.8 nM | 87.1 nM | 17.4 nM |
| COc1cncc(-c2cccc([C@]3(C)CO[C@@H](C)C(N)=N3)c2)c1 (racemic) [Compound 18, trans-rac-5-[3-(5-methoxypyridin-3-yl)phenyl]-2,5-dimethyl-5,6-dihydro-2H-1,4-oxazin-3-amine] | 6.57 | 5.54 | 6.61 |  |  |  |
| C[C@@]1(c2cccc(-c3cncnc3)c2)CO[C@@](C)(C(F)(F)F)C(N)=N1 (racemic) [Compound 161, trans-rac-2,5-dimethyl-5-(3-pyrimidin-5-ylphenyl)-2-(trifluoromethyl)-5,6-dihydro-2H-1,4-oxazin-3-amine] | <5 | 4.53 | <5 |  |  |  |
| CC1(c2cccc(-c3cncc(C#N)c3)c2)N=C(N)COC1C(F)(F)F (single isomer, unassigned) [Compound 207] | 6.33 |  | 6.24 |  | 3470 nM |  |
| C[C@]1(c2cccc(-c3cncnc3)c2)CO[C@@](C)(C(F)(F)F)C(N)=N1 (racemic) [Compound 162, cis-rac-2,5-dimethyl-5-(3-pyrimidin-5-ylphenyl)-2-(trifluoromethyl)-5,6-dihydro-2H-1,4-oxazin-3-amine] | 6.1 | 5.21 | 6.14 |  |  |  |
| CC1(c2cccc(NC(=O)c3ccc(Cl)cn3)c2)COC(F)(C(F)(F)F)C(N)=N1 (single isomer, unassigned) [Compound 157] | <5 | <4.52 | <5 |  |  |  |
| C[C@@]1(c2cc(NC(=O)c3ccc(C(F)(F)F)cn3)ccc2F)COCC(N)=N1 [Compound 38] | 8.39 | 6.91 | 8.35 |  |  |  |
| NC1=N[C@@](c2cc(NC(=O)c3ccc(Cl)cn3)ccc2F)(C2CC2)[C@H](C(F)(F)F)OC1 [Compound 233] |  |  |  | 12 nM | 31.6 nM | 12.9 nM |
